Measured values as given in the NIST ThermoML archive (doi:10.1016/j.jct.2018.02.022).
Numbers after ± are expanded uncertainties.

Assay: xn = mol fraction of the nth substance listed
Conditions: 92.3 kPa, Liquid; for viscosity: Concentric cylinders viscometry; for speed of sound: Frequency=3 MHz, Single path-length method; for mass density: Vibrating tube method

OCCO [1,2-ethanediol] + O
Conditions | mass density, 303.15 K [kg/m3] | mass density, 308.15 K [kg/m3] | speed of sound, 303.15 K [m/s] | speed of sound, 308.15 K [m/s] | viscosity, 303.15 K [mPa·s] | viscosity, 308.15 K [mPa·s]
x1 = 0.0101 | 1000.04 ± 3.2 | 998.43 ± 3.2 | 1523.1 ± 1.8 | 1532.7 ± 1.8 | – | –
x1 = 0.0201 | 1004 ± 3.2 | 1002.32 ± 3.2 | 1536.3 ± 1.8 | 1544.8 ± 1.8 | – | –
x1 = 0.0302 | 1007.88 ± 3.2 | 1006.13 ± 3.2 | 1549.1 ± 1.8 | 1556.6 ± 1.8 | – | –
x1 = 0.0407 | 1011.76 ± 3.2 | 1009.9 ± 3.2 | 1561.7 ± 1.8 | 1568.1 ± 1.8 | – | –
x1 = 0.0494 | 1014.98 ± 3.2 | 1013.02 ± 3.2 | – | – | 1.164 ± 0.16 | 1.059 ± 0.15
x1 = 0.0506 | 1015.24 ± 3.2 | 1013.36 ± 3.2 | 1573 ± 1.8 | 1578.4 ± 1.8 | – | –
x1 = 0.0605 | 1018.73 ± 3.2 | 1016.68 ± 3.2 | 1583.6 ± 1.8 | 1588 ± 1.8 | – | –
x1 = 0.0704 | 1022.12 ± 3.2 | 1019.92 ± 3.2 | 1594 ± 1.8 | 1597.4 ± 1.8 | – | –
x1 = 0.0801 | 1025.1 ± 3.2 | 1022.9 ± 3.2 | 1602.9 ± 1.8 | 1605.7 ± 1.8 | – | –
x1 = 0.0905 | 1028.31 ± 3.2 | 1026.05 ± 3.2 | 1612.5 ± 1.8 | 1614.3 ± 1.8 | – | –
x1 = 0.0986 | 1030.68 ± 3.2 | 1028.37 ± 3.2 | – | – | 1.555 ± 0.22 | 1.38 ± 0.19
x1 = 0.0997 | 1031.05 ± 3.2 | 1028.71 ± 3.2 | 1620.2 ± 1.8 | 1621.3 ± 1.8 | – | –
x1 = 0.1483 | 1043.73 ± 3.3 | 1041.14 ± 3.3 | – | – | 1.99 ± 0.28 | 1.741 ± 0.24
x1 = 0.1493 | 1044.06 ± 3.3 | 1041.45 ± 3.3 | 1654.1 ± 1.8 | 1652 ± 1.8 | – | –
x1 = 0.1985 | 1054.47 ± 3.3 | 1051.74 ± 3.3 | 1676.9 ± 1.8 | 1672.2 ± 1.8 | – | –
x1 = 0.2072 | 1056.16 ± 3.3 | 1053.32 ± 3.3 | – | – | 2.564 ± 0.36 | 2.226 ± 0.31
x1 = 0.2466 | 1063 ± 3.3 | 1060.02 ± 3.3 | – | – | 2.965 ± 0.42 | 2.572 ± 0.36
x1 = 0.2487 | 1063.38 ± 3.3 | 1060.37 ± 3.3 | 1690.5 ± 1.8 | 1684.2 ± 1.8 | – | –
x1 = 0.298 | 1070.45 ± 3.3 | 1067.33 ± 3.3 | – | – | 3.541 ± 0.5 | 3.066 ± 0.43
x1 = 0.2998 | 1070.7 ± 3.3 | 1067.57 ± 3.3 | 1698.3 ± 1.8 | 1690.6 ± 1.8 | – | –
x1 = 0.3318 | 1074.59 ± 3.3 | 1071.38 ± 3.3 | 1700.5 ± 1.8 | 1692.2 ± 1.8 | – | –
x1 = 0.3399 | 1075.52 ± 3.3 | 1072.31 ± 3.3 | – | – | 4.029 ± 0.56 | 3.48 ± 0.49
x1 = 0.3921 | 1080.8 ± 3.3 | 1077.51 ± 3.3 | – | – | 4.67 ± 0.65 | 4.026 ± 0.56
x1 = 0.3981 | 1081.34 ± 3.3 | 1077.99 ± 3.3 | 1701.1 ± 1.8 | 1691.7 ± 1.8 | – | –
x1 = 0.4446 | 1085.21 ± 3.3 | 1081.86 ± 3.3 | – | – | 5.349 ± 0.75 | 4.605 ± 0.64
x1 = 0.4521 | 1085.69 ± 3.3 | 1082.37 ± 3.3 | 1698.9 ± 1.8 | 1688.8 ± 1.8 | – | –
x1 = 0.4934 | – | 1085.26 ± 3.3 | 1695.7 ± 1.8 | 1685.2 ± 1.8 | – | –
x1 = 0.5007 | – | 1085.73 ± 3.3 | – | – | 6.109 ± 0.86 | 5.245 ± 0.73
x1 = 0.5485 | 1091.97 ± 3.3 | – | – | – | 6.771 ± 0.95 | 5.811 ± 0.81
x1 = 0.552 | 1092.19 ± 3.3 | – | 1690.2 ± 1.8 | 1679.4 ± 1.8 | – | –
x1 = 0.5846 | 1093.94 ± 3.3 | 1090.48 ± 3.3 | 1686.7 ± 1.8 | 1675.8 ± 1.8 | – | –
x1 = 0.6004 | 1094.63 ± 3.3 | 1091.17 ± 3.3 | – | – | 7.519 ± 1.1 | 6.445 ± 0.9
x1 = 0.6451 | 1096.63 ± 3.3 | 1093.16 ± 3.3 | – | – | 8.173 ± 1.1 | 7.002 ± 0.98
x1 = 0.6481 | 1096.77 ± 3.3 | 1093.29 ± 3.3 | 1679.9 ± 1.8 | 1668.8 ± 1.8 | – | –
x1 = 0.6773 | 1097.96 ± 3.3 | 1094.48 ± 3.3 | 1676.6 ± 1.8 | 1665.3 ± 1.8 | – | –
x1 = 0.7012 | 1098.83 ± 3.3 | 1095.34 ± 3.3 | – | – | 9.085 ± 1.3 | 7.725 ± 1.1
x1 = 0.7421 | 1100.21 ± 3.3 | 1096.71 ± 3.3 | 1669.4 ± 1.8 | 1658 ± 1.8 | – | –
x1 = 0.7435 | 1100.29 ± 3.3 | 1096.79 ± 3.3 | – | – | 9.808 ± 1.4 | 8.27 ± 1.2
x1 = 0.7811 | 1101.44 ± 3.3 | 1097.94 ± 3.3 | 1665 ± 1.8 | 1653.6 ± 1.8 | – | –
x1 = 0.7907 | 1101.74 ± 3.3 | 1098.23 ± 3.3 | – | – | 10.55 ± 1.5 | 8.857 ± 1.2
x1 = 0.8497 | – | 1099.81 ± 3.3 | 1657.7 ± 1.8 | 1646.1 ± 1.8 | – | –
x1 = 0.8505 | – | 1099.84 ± 3.3 | – | – | 11.54 ± 1.6 | 9.617 ± 1.3
x1 = 0.89 | 1104.3 ± 3.3 | 1100.78 ± 3.3 | – | – | 12.15 ± 1.7 | 10.11 ± 1.4
x1 = 0.9002 | 1104.55 ± 3.3 | 1101.03 ± 3.3 | 1652.6 ± 1.8 | 1640.9 ± 1.8 | – | –
x1 = 0.9059 | 1104.67 ± 3.3 | 1101.15 ± 3.3 | 1652.1 ± 1.8 | 1640.4 ± 1.8 | – | –
x1 = 0.912 | 1104.78 ± 3.3 | 1101.26 ± 3.3 | 1651.6 ± 1.8 | 1639.9 ± 1.8 | – | –
x1 = 0.9299 | 1105.19 ± 3.3 | 1101.66 ± 3.3 | 1649.8 ± 1.8 | 1638.1 ± 1.8 | – | –
x1 = 0.9413 | 1105.43 ± 3.3 | 1101.91 ± 3.3 | 1648.7 ± 1.8 | 1637 ± 1.8 | – | –
x1 = 0.9495 | 1105.62 ± 3.3 | 1102.1 ± 3.3 | 1647.8 ± 1.8 | 1636.1 ± 1.8 | – | –
x1 = 0.9532 | 1105.68 ± 3.3 | 1102.16 ± 3.3 | – | – | 13.12 ± 1.8 | 10.89 ± 1.5
x1 = 0.9546 | 1105.72 ± 3.3 | 1102.2 ± 3.3 | 1647.5 ± 1.8 | 1635.8 ± 1.8 | – | –
x1 = 0.9681 | 1105.98 ± 3.3 | 1102.46 ± 3.3 | 1646.3 ± 1.8 | 1634.6 ± 1.8 | – | –
x1 = 0.9789 | 1106.18 ± 3.3 | – | 1645.4 ± 1.8 | 1633.6 ± 1.8 | – | –
x1 = 0.9893 | 1106.39 ± 3.2 | – | 1644.3 ± 1.8 | 1632.5 ± 1.8 | – | –
x1 = 1 | 1106.71 ± 3 | – | 1642.9 ± 1.8 | 1631.2 ± 1.8 | 13.87 ± 1.9 | 11.48 ± 1.6
